Data published in patent publication US8030336B2, “Nicotinamide-based kinase inhibitors” (YM Biosciences Australia Pty Ltd, priority 2002, dated 2011).

Key:
Type in all cases: biochemical
[1] = target: T1, human JAK2 (Homo sapiens, UniProt O60674); experiment: JAK2 kinase assay (ELISA or Alphascreen); settings: read-out: Jak2 inhibition of enzyme activity
T1 construct: The kinase domain of human JAK2 was amplified from U937mRNA; His tag (from the pFastBac HTc vector) (N); made in house; host or cells: baculovirus; Sf9 for virus, High Five insect cells for production
From the text: The kinase domain of human JAK2 was amplified from U937mRNA using the polymerase chain reaction with the following primers: […]
JAK2 PCR products were doped into the pFastBac HTc expression vector (Gibco) via the Sal I and Not I sites. The JAK2 plasmid was than transformed into competent DH10Bac cells (Gibco), and the recombinant baculovirus produced prepared for transfection into Sf9 insect cells.
(§1) Baculovirus preparations from each of the JAK family members were infected into five liters of High Five cells (Invitrogen) grown in High Five serum free medium (Invitrogen) to a cell density of approximately 1-2×10^6 cells/ml. Cells are infected with virus at a MOI of 0.8-3.0. Cells were harvested and lysed. JAK kinase domains were purified by affinity chromatography on a Probond (Invitrogen) nickel chelate affinity column.
(§2) Kinase assays were performed in a 96 well capture-based ELISA assay or in 384 well Optiplates (Packard) using an Alphascreen Protein Tyrosine Kinase kit. In either case using approximately 1.5 μg of affinity purified PTK domain in the presence of 50 mM HEPES, pH 7.5, 10 mM MgCl2, 150 mM NaCl and 10 μM-1 mM ATP. The biotinylated substrate biotin-EGPWLEEEEEAYGWMDF-NH2 (SEQ ID NO:9) (final concentration 5 μM) was used as substrate. In the ELISA assay tyrosine phosphorylation was quantitated following transfer to an avidin coated ELISA plate using peroxidase-linked anti-phosphotyrosine antibody PY20. In the Alphascreen assay, Alphascreen phosphotyrosine acceptor beads followed by streptavidin donor beads were added under subdued light. The ELISA plates were read on a BMG Fluorostar, the Alphascreen plates were read on a Packard Fusion Alpha. Inhibitors were added to the assays fifteen minutes prior to the addition of ATP. Inhibitors were added in aqueous […] concentrations never exceeding 1%.

[2] = target: T2, human JAK3 (Homo sapiens, UniProt P52333); experiment: JAK3 kinase assay (ELISA or Alphascreen); settings: read-out: Jak3 inhibition of enzyme activity
T2 construct: The kinase domain of human JAK3 was amplified from U937mRNA; His tag (from the pFastBac HTb vector) (N); made in house; host or cells: baculovirus; Sf9 for virus, High Five insect cells for production
From the text: The kinase domain of human JAK3 was amplified from U937mRNA using the polymerase chain reaction with the following primers: […]
JAK3 PCR products were cloned into the pFastBac HTb expression vector (Gibco) via the Xho I and Kpn I sites. The JAK3 plasmid was then transformed into competent DH10Bac cells (Gibco), and the recombinant baculovirus produced prepared for transfection into Sf9 insect cells.
as §1, §2

[3] = target: T3, abl (Homo sapiens, UniProt P00519); experiment: abl kinase assay (ELISA or Alphascreen); settings: read-out: abl inhibition of enzyme activity
T3 sequence (P00519 242-493 limits assumed): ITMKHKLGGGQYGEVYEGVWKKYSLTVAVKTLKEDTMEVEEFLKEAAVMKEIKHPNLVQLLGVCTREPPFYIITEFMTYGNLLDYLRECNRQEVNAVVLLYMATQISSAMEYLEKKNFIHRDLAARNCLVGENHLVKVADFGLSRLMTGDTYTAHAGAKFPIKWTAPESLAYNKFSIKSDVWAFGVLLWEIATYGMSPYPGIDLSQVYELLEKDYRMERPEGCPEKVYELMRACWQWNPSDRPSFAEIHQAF
Description: as §2

[4] = target: fes (Homo sapiens, UniProt P07332); experiment: fes kinase assay (ELISA or Alphascreen); settings: read-out: fes inhibition of enzyme activity
Description: as §2

[5] = target: T4, fms (Homo sapiens, UniProt P07333); experiment: fms kinase assay (ELISA or Alphascreen); settings: read-out: fms inhibition of enzyme activity
T4 sequence (P07333 582-910 limits assumed): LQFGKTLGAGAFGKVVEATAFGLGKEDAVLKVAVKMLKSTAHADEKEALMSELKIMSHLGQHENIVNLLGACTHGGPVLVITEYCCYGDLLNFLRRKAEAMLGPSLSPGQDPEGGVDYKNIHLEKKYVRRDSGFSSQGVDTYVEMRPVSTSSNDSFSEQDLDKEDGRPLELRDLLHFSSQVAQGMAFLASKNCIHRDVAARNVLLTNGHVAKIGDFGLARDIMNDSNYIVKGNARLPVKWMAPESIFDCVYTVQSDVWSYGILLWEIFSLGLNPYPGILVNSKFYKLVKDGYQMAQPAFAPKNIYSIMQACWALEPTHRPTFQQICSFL
Description: as §2

[6] = target: T5, Zap70 (Homo sapiens, UniProt P43403); experiment: Zap70 kinase assay (ELISA or Alphascreen); settings: read-out: Zap70 inhibition of enzyme activity
T5 sequence (P43403 338-600 limits assumed): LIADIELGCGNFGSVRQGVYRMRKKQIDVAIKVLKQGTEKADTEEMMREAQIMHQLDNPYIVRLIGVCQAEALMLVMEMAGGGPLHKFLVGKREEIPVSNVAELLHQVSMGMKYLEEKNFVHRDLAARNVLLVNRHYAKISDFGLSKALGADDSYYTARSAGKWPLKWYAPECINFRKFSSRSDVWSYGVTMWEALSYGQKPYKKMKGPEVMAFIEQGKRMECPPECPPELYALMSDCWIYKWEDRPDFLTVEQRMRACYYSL
Description: as §2

T1 sequence (O60674 849-1124 limits assumed): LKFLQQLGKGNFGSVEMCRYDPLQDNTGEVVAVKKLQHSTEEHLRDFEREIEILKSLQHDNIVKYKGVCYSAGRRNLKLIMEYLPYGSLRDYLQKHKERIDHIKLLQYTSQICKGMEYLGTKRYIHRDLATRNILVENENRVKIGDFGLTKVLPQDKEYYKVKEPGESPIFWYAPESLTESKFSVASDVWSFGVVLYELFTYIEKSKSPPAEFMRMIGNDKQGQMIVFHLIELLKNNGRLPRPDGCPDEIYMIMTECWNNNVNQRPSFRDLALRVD
T2 sequence (P52333 822-1111 limits assumed): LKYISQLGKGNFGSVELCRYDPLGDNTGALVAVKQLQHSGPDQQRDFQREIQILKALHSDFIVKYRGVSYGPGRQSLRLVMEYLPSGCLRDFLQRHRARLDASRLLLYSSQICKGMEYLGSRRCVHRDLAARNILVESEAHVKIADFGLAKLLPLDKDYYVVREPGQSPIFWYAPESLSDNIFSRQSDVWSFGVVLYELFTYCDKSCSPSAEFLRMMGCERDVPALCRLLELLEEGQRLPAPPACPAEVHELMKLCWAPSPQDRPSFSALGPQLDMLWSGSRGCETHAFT
fes, sequence (P07332 561-822 limits assumed, species assumed): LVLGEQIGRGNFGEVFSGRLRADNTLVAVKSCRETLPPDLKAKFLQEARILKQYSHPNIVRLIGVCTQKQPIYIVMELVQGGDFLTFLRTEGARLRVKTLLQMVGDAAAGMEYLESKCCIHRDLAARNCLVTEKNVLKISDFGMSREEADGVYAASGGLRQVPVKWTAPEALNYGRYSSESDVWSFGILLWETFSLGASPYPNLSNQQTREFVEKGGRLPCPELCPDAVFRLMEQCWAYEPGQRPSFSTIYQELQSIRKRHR

inhibition at 10 µM [1] [%]	inhibition at 10 µM [2] [%]	inhibition at 10 µM [3] [%]	inhibition at 10 µM [4] [%]	inhibition at 10 µM [5] [%]	inhibition at 10 µM [6] [%]	SMILES
< 50	< 50	≥ 50	≥ 50	≥ 50	< 50	Cc1ccc(C)c(CNC(=O)c2cncc(-c3cc(C)c(O)c(C)c3)c2)c1
< 50	< 50	< 50	< 50	< 50	< 50	COc1cc(-c2cncc(C(=O)Nc3ccc(N4CCOCC4)cc3)c2)c(Cl)c(OC)c1OC
< 50	< 50	≥ 50	< 50	< 50	< 50	Cc1ccc(F)cc1NC(=O)c1cncc(-c2ccc(O)cc2)c1
< 50	< 50	< 50		< 50	< 50	CN1CCN(c2ccc(NC(=O)c3cncc(-c4ccc(F)cc4)c3)cc2)CC1
< 50	< 50	< 50	< 50	< 50	< 50	COc1ccc(NC(=O)c2cncc(-c3ccc(F)cc3)c2)c(OC)c1
< 50	< 50		< 50	< 50	< 50	O=C(NCCCn1ccnc1)c1cncc(-c2ccc(F)cc2)c1
< 50	< 50		< 50	< 50	< 50	CN1CCN(c2ccc(CNC(=O)c3cncc(-c4ccc(F)cc4)c3)cc2)CC1
< 50	< 50		< 50	< 50	< 50	C[C@H](NC(=O)c1cncc(-c2cccnc2)c1)c1ccccc1
< 50		< 50	< 50	< 50	< 50	Cc1cc(-c2cncc(C(=O)N[C@@H](C)c3ccccc3)c2)cc(C)c1O

Continued, molecule first:

SMILES	inhibition at 10 µM [1] [%]	inhibition at 10 µM [2] [%]	inhibition at 10 µM [3] [%]	inhibition at 10 µM [4] [%]	inhibition at 10 µM [5] [%]	inhibition at 10 µM [6] [%]
O=C(NCc1ccncc1)c1cncc(-c2ccc(F)cc2)c1	< 50	< 50	< 50	< 50	< 50	< 50
O=C(NCc1ccc(F)cc1)c1cncc(-c2ccc(F)cc2)c1	≥ 50	< 50	< 50	< 50	< 50	< 50
O=C(NCCO)c1cncc(-c2cccs2)c1	< 50	< 50	< 50	< 50	< 50	< 50
O=C(Nc1ccccc1)c1cncc(-c2ccc3c(c2)OCO3)c1	< 50	< 50	< 50	< 50	< 50	< 50
Cc1ccc(C)c(NC(=O)c2cncc(-c3cccs3)c2)c1	< 50	< 50	< 50	≥ 50	< 50	< 50
COc1ccc(NC(=O)c2cncc(-c3cc(OC)c(OC)c(OC)c3Cl)c2)c(OC)c1	< 50	< 50	< 50	< 50	< 50	< 50
COc1cc(-c2cncc(C(=O)NCc3cccc(F)c3)c2)c(Cl)c(OC)c1OC	< 50	< 50	< 50	< 50	< 50	< 50
COc1cccc(-c2cncc(C(=O)Nc3ccccc3C)c2)c1	< 50	< 50	< 50	< 50	< 50	< 50
COc1cccc(-c2cncc(C(=O)Nc3cc(F)ccc3C)c2)c1	< 50	< 50	< 50	< 50		≥ 50
COc1cc(-c2cncc(C(=O)NCc3ccc(C)cc3)c2)c(Cl)c(OC)c1OC	< 50	< 50	< 50	< 50		< 50
Cc1ccccc1NC(=O)c1cncc(-c2ccc(F)cc2)c1	< 50	< 50	< 50	< 50		< 50
COc1ccc(NC(=O)c2cncc(-c3cc(C)c(O)c(C)c3)c2)c(OC)c1	< 50	< 50	< 50	< 50		< 50
Cc1ccc(CNC(=O)c2cncc(-c3cc(C)c(O)c(C)c3)c2)cc1	< 50	< 50	< 50	< 50	< 50	< 50
Cc1ccc(C)c(NC(=O)c2cncc(-c3ccc4c(c3)OCO4)c2)c1	< 50	< 50	< 50	< 50	< 50	< 50
COc1cc(-c2cncc(C(=O)NC(CO)C(C)C)c2)c(Cl)c(OC)c1OC (stereo not shown)	< 50	< 50	< 50		< 50	< 50
C[C@@H](NC(=O)c1cncc(-c2ccc(F)cc2)c1)c1ccccc1	< 50	< 50		< 50	< 50	< 50
Cc1cc(F)ccc1NC(=O)c1cncc(-c2cccs2)c1		< 50	< 50	< 50	< 50	< 50
O=C(NCc1ccc(Cl)c(Cl)c1)c1cncc(-c2ccc3c(c2)OCO3)c1	< 50	< 50		< 50	< 50	< 50
O=C(NCc1ccco1)c1cncc(-c2cccnc2)c1	< 50	< 50		< 50	< 50	< 50
